How the values were obtained:
[1] = biological target: T1, recombinant human IDE42-1019 (Homo sapiens, UniProt P14735); experiment: Protease assay with fluorogenic peptide substrate Mca-[…](Dnp)-OH; type: biochemical; conditions: for IC50: fluorogenic peptide Mca-RPPGFSAFK(Dnp)-OH, apparent IC50 for compounds with submaximal inhibition, read-out: IC50 (μM) Proteolysis
T1 construct: recombinant human IDE42-1019 (R&D Systems); purchased R&D Systems
T1 sequence (P14735 42-1019): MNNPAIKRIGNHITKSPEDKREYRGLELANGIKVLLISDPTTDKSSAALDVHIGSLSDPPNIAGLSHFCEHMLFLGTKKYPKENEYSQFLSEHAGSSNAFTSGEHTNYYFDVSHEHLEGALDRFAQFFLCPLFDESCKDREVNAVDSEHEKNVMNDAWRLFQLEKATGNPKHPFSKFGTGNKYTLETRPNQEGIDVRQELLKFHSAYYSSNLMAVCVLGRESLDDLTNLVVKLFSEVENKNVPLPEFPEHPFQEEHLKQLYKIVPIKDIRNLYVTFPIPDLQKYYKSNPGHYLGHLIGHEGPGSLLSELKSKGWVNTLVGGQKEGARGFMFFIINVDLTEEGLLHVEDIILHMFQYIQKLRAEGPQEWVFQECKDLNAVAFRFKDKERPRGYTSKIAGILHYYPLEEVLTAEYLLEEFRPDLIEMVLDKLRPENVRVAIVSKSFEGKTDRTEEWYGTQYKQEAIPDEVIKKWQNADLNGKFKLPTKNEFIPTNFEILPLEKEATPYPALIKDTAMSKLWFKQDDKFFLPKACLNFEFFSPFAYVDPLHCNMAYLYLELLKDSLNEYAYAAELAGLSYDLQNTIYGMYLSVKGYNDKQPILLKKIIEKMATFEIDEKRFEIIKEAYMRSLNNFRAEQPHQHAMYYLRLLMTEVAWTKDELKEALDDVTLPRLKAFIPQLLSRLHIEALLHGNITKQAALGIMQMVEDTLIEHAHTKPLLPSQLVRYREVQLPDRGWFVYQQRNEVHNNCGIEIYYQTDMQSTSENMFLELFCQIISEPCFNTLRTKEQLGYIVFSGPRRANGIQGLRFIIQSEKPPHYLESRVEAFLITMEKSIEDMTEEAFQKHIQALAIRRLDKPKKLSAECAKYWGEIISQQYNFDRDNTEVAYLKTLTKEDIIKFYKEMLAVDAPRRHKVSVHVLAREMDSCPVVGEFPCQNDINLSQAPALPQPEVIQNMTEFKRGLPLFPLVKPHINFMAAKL

[2] = biological target: T2, Human N-His6-IDE42-1019 (E. coli expressed) (Homo sapiens, UniProt P14735); experiment: Fluorescence anisotropy high-throughput screening assay (displacement of probe FL-6b); type: binding; conditions: final compound concentration 20 μM (6bK control 1 μM); values without asterisk
T2 construct: Human N-His6-IDE42-1019 (E. coli expressed); made in house; host or cells: E. coli (Rosetta 2 (DE3) pLysS, plasmid pTrcHis-A)
T2 sequence (P14735 42-1019): T1 sequence (P14735 42-1019)
How it was run: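 Compounds at 20 μM final were added to 0.5 μM enzyme with fluorescein-labelled macrocycle probe ([…]) in 50 mM Tris pH 8.0, 1 M NaCl, 25 °C. Anisotropy (ex 492/em 523 nm) was read after 30 min in duplicate. Z-scores were calculated against plate DMSO controls.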

NCCCC[C@@H]1NC(=O)/C=C/C(=O)N[C@H](C(N)=O)CCCCNC(=O)[C@@H](Cc2ccc(C(=O)c3ccccc3)cc2)NC(=O)[C@H](CC2CCCCC2)NC1=O [6bK, reference compound]
IC50 [1]: 0.05 µM
Emax ([1]; read-out: Imax (%) Proteolysis (inhibition maximum), fluorogenic peptide Mca-RPPGFSAFK(Dnp)-OH, plateau at high inhibitor concentration): 100%
Average Z-score (Fluorescence anisotropy) [2]: −24.52

Cc1cccc(-c2ccc([C@@H]3[C@@H](CO)N4CCCCN(S(=O)(=O)c5ccccc5C)C[C@@H]34)cc2)c1 [compound 297]
IC50 [1]: 0.25 µM
Average Z-score (Fluorescence anisotropy) [2]: −20.26

From patent US11040976B2, “Substrate selective inhibitors of insulin-degrading enzyme (IDE) and uses thereof” (President and Fellows of Harvard College, priority 2015, dated 2021)
